Assay type in all cases: cell-based
In one test the target is T1, hKCC3a (Homo sapiens, UniProt Q9UHW9, L346X/L35X/L789X).
T1 construct: A full-length hKCC3a construct has also been generated for functional expression; expressed in transfected cells; host or cells: Xenopus laevis oocytes injected with cRNA
T1 sequence (Q9UHW9 1-1150 L35X/L346X/L789X): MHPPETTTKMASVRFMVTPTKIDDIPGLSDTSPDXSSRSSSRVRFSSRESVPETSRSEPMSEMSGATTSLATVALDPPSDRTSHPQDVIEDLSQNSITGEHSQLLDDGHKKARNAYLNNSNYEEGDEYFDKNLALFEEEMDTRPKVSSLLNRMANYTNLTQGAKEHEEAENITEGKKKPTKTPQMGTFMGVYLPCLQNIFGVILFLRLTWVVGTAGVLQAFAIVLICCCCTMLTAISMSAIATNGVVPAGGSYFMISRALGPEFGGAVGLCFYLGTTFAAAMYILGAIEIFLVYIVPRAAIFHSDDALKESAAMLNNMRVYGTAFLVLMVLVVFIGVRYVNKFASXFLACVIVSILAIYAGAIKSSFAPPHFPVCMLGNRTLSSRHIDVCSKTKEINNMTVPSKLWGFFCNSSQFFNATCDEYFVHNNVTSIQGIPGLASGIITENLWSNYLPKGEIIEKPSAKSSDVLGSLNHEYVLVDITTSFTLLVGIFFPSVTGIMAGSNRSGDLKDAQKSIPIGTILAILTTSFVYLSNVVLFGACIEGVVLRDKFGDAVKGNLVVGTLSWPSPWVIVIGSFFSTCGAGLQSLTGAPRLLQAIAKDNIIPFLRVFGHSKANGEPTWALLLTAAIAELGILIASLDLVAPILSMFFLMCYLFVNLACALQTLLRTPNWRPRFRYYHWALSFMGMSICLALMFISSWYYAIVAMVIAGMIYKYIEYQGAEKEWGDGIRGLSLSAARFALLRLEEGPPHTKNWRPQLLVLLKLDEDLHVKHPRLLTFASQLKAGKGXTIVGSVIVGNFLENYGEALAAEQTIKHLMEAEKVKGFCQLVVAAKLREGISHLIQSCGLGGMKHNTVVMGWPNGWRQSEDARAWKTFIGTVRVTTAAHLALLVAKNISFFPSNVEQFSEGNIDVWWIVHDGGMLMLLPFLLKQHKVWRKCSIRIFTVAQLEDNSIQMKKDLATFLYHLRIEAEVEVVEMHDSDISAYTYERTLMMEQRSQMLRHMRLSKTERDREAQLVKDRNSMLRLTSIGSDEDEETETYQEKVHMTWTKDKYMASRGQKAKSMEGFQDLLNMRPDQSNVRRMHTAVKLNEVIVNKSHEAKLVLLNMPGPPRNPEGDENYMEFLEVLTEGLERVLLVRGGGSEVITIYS
Put plainly: 86Rb+ uptake (K+-Cl- cotransport) in Xenopus oocytes injected with hKCC3a cRNA. Particulars: for Km: KCC3.

Test [1] concerns Na^+—K^+-2Cl^− cotransport activity of Xenopus oocytes. Put plainly: Endogenous Na+-K+-2Cl- cotransport activity of Xenopus oocytes. Conditions: 100 μM DIOA. As for the experimental part:
The sensitivity of the KCCs to other inhibitors of red cell K^+—Cl^− cotransport was also assessed in oocytes injected with KCC4 or KCC1. FIG. 18 illustrates the effect of 100 μM DIDS and 100 μM DIOA on the ^86Rb^+ uptake induced by the microinjection of each KCC cRNA. The effect of extracellular K^+ concentration on the inhibition of cotransport was very dramatic for DIDS. […] However, inhibition of KCC4 was higher when extracellular K^+ was lower, although this was not the case for KCC1. DIOA is reportedly specific for K^+—Cl^− cotransport over Na^+—K^+-2Cl^− cotransport (Garay et al. (1988) Mol Pharmacol 33:696–701), and the same concentration of DIOA had no effect on the function of the Na^+—K^+-2Cl^− cotransport activity of Xenopus oocytes (Gamba et al. (1994) J Biol Chem 269: 17713–17722).

The target in the next test is T2, hKCC3b (Homo sapiens, UniProt Q9UHW9).
T2 construct: expressed in transfected cells; host or cells: Xenopus oocytes microinjected with KCC3b cRNA
T2 sequence (Q9UHW9 1-1099 isoform Q9UHW9-2): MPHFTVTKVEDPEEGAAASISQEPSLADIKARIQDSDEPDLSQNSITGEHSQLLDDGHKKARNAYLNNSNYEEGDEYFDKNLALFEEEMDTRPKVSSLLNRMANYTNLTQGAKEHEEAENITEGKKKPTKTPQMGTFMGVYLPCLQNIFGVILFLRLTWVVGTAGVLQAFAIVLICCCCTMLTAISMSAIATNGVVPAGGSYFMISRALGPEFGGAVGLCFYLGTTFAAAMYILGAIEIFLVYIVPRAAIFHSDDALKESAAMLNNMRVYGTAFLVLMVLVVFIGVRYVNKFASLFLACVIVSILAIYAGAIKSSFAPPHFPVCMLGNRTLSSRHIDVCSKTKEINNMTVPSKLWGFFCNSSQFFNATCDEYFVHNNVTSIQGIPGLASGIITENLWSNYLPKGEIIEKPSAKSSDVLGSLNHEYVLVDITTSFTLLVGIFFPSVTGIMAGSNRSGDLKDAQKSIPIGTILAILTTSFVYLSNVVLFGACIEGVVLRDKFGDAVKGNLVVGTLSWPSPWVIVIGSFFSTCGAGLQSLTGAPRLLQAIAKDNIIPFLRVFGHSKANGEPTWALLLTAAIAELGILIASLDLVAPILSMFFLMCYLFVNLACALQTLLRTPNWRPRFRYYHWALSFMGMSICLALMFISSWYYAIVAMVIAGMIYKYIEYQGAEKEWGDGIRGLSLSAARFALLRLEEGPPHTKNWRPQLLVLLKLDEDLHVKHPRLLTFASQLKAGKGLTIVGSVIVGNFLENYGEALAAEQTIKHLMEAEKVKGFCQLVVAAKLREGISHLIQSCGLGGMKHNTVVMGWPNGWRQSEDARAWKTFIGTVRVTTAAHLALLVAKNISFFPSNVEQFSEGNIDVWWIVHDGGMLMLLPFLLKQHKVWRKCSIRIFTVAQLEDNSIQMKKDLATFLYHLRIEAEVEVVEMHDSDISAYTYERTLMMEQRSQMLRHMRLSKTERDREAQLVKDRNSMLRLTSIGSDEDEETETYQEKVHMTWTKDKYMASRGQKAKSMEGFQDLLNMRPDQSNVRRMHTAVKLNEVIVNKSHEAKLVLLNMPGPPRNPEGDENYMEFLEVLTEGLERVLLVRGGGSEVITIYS
Conditions: 2 mM furosemide; 100 nM calyculin A. Here is the method:
Open bars, uptake assays performed in a control medium containing 10 mM K^+and 50 mM Cl^−; hatched bars, uptake assays performed in medium lacking Cl^−; bars with horizontal stripes, uptake assays performed in the presence of 100 nM calyculin A; black bars, uptake assays performed in the presence of okadaic acid; gray bars, uptake assays performed in the presence of cypermetrin.

Like-named read-outs stand apart in the source and are kept apart here.

For the compound `Cl` [Chloride], the Km (usually the concentration of substrate that gives half-maximal velocity) at hKCC3a (read-out: Chloride Km) was 14.2 mM. For `CCCCC1(C2CCCC2)Cc2cc(OCC(=O)O)c(Cl)c(Cl)c2C1=O` (centres unmarked) [DIOA], in test [1], the “effect on Na+-K+-2Cl- cotransport activity of Xenopus oocytes” value is “no effect”. Consider `[K+]` [Potassium], for which the Michaelis-Menten constant (Km) at hKCC3a (read-out: Potassium Km) stood at 51.9 mM. Take `COC[C@@H]([C@H](O)[C@H](O)C(=O)NCC[C@H](C)c1nc(/C=C/C[C@@H]2O[C@]3(C[C@@H](O)[C@@H]2C)O[C@H]([C@H](C[C@H](O)[C@H](C)[C@H](O)[C@H](C)/C=C(C)/C(C)=C/C=C/C(C)=C\C#N)OC)[C@H](OP(=O)(O)O)C3(C)C)co1)N(C)C` [calyculin A]: the “hKCC3b-mediated K+-Cl- cotransport in the presence of putative inhibitors” value at hKCC3b was “blocked”.

HgCl2 [Hg—Cl2]: the “response of KCC3a to mercury” value at hKCC3a (50 μM HgCl2, hypotonic) is on record as “resistant”.
